Reference: patent US5001155A, “β-ionone derivative as antifungal agent” (University of Kentucky Research Foundation, priority 1989, dated 1991)
Converted amounts (≈) assume the structure as drawn.

Experiments:
[1] = system: Peronospora tabacina sporangia; experiment: Inhibition of Sporangial Germination, Variant II (test 3.12); type: cell-based; conditions: 1% water agar, 10^6 s/ml, 18° C., 16 hours, read-out: ED50 (the source's name)
Experimental: 3.12. Variant II In another in vitro test, the substances (10^2 -10^-8 ppm) were added to 1% water agar and poured into petri dishes. After cooling, the media were inoculated with 100 μl of a suspension of sporangia (10^6 s/ml) and incubated at 18° C. during 16 hours. The germinated sporangia were counted under the microscope.

P. tabacina conidia = conditions: Phytochemistry 1972, vol. 11, pp. 2055-2063; cited from earlier work

Question: With `CCOCC(=O)O[C@@H]1CC(C)=C(/C=C/C(C)=O)C(C)(C)C1` [3(R)-ethoxyacetoxy-β-ionone] as the compound, how does the IC50 [1] read?
Answer: 0.006 ng/mL (≈ 0.0204 nM)

Question: With `COCC(=O)O[C@@H]1CC(C)=C(/C=C/C(C)=O)C(C)(C)C1` [3(R)-methoxyacetoxy-β-ionone] as the compound, how does the IC50 [1] read?
Answer: 8e-05 ng/mL (≈ 0.000285 nM)

Question: Which IC50 [1] does the source give for `CCCC(=O)O[C@@H]1CC(C)=C(/C=C/C(C)=O)C(C)(C)C1` [3(R)-n-butyroyloxy-β-ionone, 3(R)-butyroyloxy-β-ionone] here?
Answer: 2e-05 ng/mL (≈ 7.18e-05 nM)

Question: Which IC50 [1] does the source give for `CCCCCC(=O)O[C@@H]1CC(C)=C(/C=C/C(C)=O)C(C)(C)C1` [3(R)-n-hexanoyloxy-β-ionone] here?
Answer: 0.05 ng/mL (≈ 0.163 nM)

Question: Which IC50 [1] does the source give for `CC(=O)/C=C/C1=C(C)C[C@@H](OC(=O)C(C)(C)C)CC1(C)C` [3(R)-pivaloyloxy-β-ionone] here?
Answer: 0.001 ng/mL (≈ 0.00342 nM)

Question: Which inhibition of germination (P. tabacina conidia) does the source give for `CC(=O)/C=C/C1=C(C)CC(OC(=O)C(C)C)CC1(C)C` (stereo not drawn) [Quieson, 3-isobutyroyloxy-β-ionone, reference compound] here?
Answer: an inhibitor of the germination of P. tabacina conidia

Question: What about the IC50 [1] of the same compound?
Answer: 0.4 ng/mL (≈ 1.44 nM)
